Experimental data reported in the supplement of paper PMC10307832.

Experiments:
Test in all cases: relative viability (nuclei count vs DMSO), 5 days (fraction); higher = more cells survive
[1] = compound: Cn1c(Nc2ccc(C(F)(F)F)cc2)nc2cc(Oc3ccnc(-c4ncc(C(F)(F)F)[nH]4)c3)ccc21 [RAF265] + CC(=O)Nc1cccc(-n2c(=O)n(C3CC3)c(=O)c3c(Nc4ccc(I)cc4F)n(C)c(=O)c(C)c32)c1 [Trametinib] (partner 0.02 µM)
Summary of the method: (§1)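 Lung cancer cell lines in 1536-well plates got either a single drug or a fixed anchor-drug dose together with five library-drug doses (not always all listed) in √10 steps, by pin tool, on the day after seeding. Nuclei were counted after 5 days, and relative viability is the treated-to-vehicle ratio of nuclei counts. Values are medians of duplicate plates.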

[2] = compound: Cn1c(Nc2ccc(C(F)(F)F)cc2)nc2cc(Oc3ccnc(-c4ncc(C(F)(F)F)[nH]4)c3)ccc21 [RAF265] + C[C@]1(O)C[C@@H](c2nc(-c3ccc4ccc(-c5ccccc5)nc4c3)c3c(N)nccn32)C1 [Linsitinib] (partner 1 µM)
Summary of the method: as §1

[3] = compound: C1=CC=C2C(=C1)C=CC(=C2SSC3=C(C=CC4=CC=CC=C43)O)O [IPA-3] + CC1(C)CCC(c2ccc(Cl)cc2)=C(CN2CCN(c3ccc(C(=O)NS(=O)(=O)c4ccc(N[C@H](CCN5CCOCC5)CSc5ccccc5)c(S(=O)(=O)C(F)(F)F)c4)cc3)CC2)C1 [Navitoclax] (partner 0.5 µM)
Summary of the method: as §1

[4] = compound: Cc1ccc(-n2nc(C(C)(C)C)cc2NC(=O)Nc2ccc(OCCN3CCOCC3)c3ccccc23)cc1 [Doramapimod] + COc1cccc2cc(-c3nc([C@H]4CC[C@H](C(=O)O)CC4)n4ncnc(N)c34)[nH]c12 [OSI-027] (partner 0.5 µM)
Summary of the method: as §1

Cell Line	relative viability ([1]; first compound 0.01 µM)	relative viability ([1]; first compound 0.03162 µM)	relative viability ([1]; first compound 0.1 µM)	relative viability ([1]; first compound 0.3162 µM)	relative viability ([1]; first compound 1 µM)	relative viability ([2]; first compound 0.01 µM)	relative viability ([2]; first compound 0.03162 µM)	relative viability ([2]; first compound 0.1 µM)	relative viability ([2]; first compound 0.3162 µM)	relative viability ([2]; first compound 1 µM)	relative viability ([3]; first compound 0.2 µM)	relative viability ([3]; first compound 0.6325 µM)	relative viability ([3]; first compound 2 µM)	relative viability ([3]; first compound 6.325 µM)	relative viability ([3]; first compound 20 µM)	relative viability ([4]; first compound 0.02 µM)	relative viability ([4]; first compound 0.06325 µM)	relative viability ([4]; first compound 0.2 µM)	relative viability ([4]; first compound 0.6325 µM)	relative viability ([4]; first compound 2 µM)
H3255	0.719	0.585	0.657	0.271	0.458	1	0.942	0.929	0.137	0.716	0.543	0.523	0.446	0.566	0.603	0.684	0.618	0.526	0.679	0.518
HCC-15	0.346	0.403	0.379	0.338	0.21	0.886	0.835	0.754	0.639	0.394	0.693	0.65	0.642	0.725	0.748	0.688	0.645	0.68		0.539
NCI-H2009	0.29	0.303	0.189	0.188	0.165	1.23	1.12	1.13	1.04	0.788	1.29	1.17	1.19	1.16	1.15	0.657	0.72	0.773	0.765	0.587
HCC-44	0.938	1.02	1.08	1.01	0.966	0.643	0.617	0.667	0.661	0.64	1.11	0.969	0.977	1	0.942	0.563	0.607	0.625	0.463	0.433
COR-L23	0.684	0.444	0.331	0.247	0.207	0.847	0.838	0.662	0.431	0.312	1.11	0.975	1.07	0.983	0.926	0.688	0.892	0.84	0.806	0.621
EMC-BAC-2	0.977	0.857	0.85	0.62	0.313	0.761	0.793	0.734	0.596	0.348	1.38	1.11	1.16	1.09	1.32	0.379	0.396	0.445	0.571	0.43
LK-2	0.721	0.628	0.787	0.799	0.53	0.615	0.555	0.67	0.671	0.351	0.983	0.881	0.81	1.05	1.17	0.204	0.152	0.18	0.158	0.186
SW 1573	0.665	0.597	0.556	0.54	0.255	0.767	0.744	0.796	0.612	0.508	0.99	0.67	1.21	1.09	1.13	0.585	0.514	0.485	0.586	0.352
NCI-H2405	0.605	0.639	0.539	0.474	0.383	0.993	0.884	1.03	0.852	0.378	0.993	0.989	0.929	0.892	0.984	0.654	0.596	0.606	0.74	0.598
NCI-H2087	0.195	0.148	0.154	0.161	0.129	0.827	0.844	0.9	0.699	0.587	1.15	0.863	0.837	0.859	0.926	0.567	0.449	0.51	0.655	0.506
NCI-H460	0.238	0.23	0.133	0.156	0.0601	0.812	0.692	0.647		0.378	1.45	0.968	1.45	1.04	1.09	0.612	0.721	0.658	0.753	0.585
LOU-NH91	0.837	0.756	0.717	0.71	0.636	1.03	0.818	1.03	0.599	0.644	0.705	0.67	0.744	0.67	0.868	0.776	0.752	0.738	0.769	0.559
NCI-H1651	0.797	0.808	0.795	0.796	0.734	0.999	0.976	1.07	0.74	0.737	1.06		0.998	1.1	1.19	0.751	0.701	0.727	0.729	0.656
NCI-H441	0.598	0.504	0.461	0.436	0.457	0.617	0.495	0.415	0.3	0.389	0.814		0.405	0.216	0.771	0.709	0.512	0.591		0.475
